According to patent publication US20070117743A1, “New antitumoral compounds” (priority 2003, published 2007):

Tests used:
Type in all cases: cell-based, human
Settings in all cases: 48 hours exposure
[1] = system: A-549; experiment: SRB colorimetric assay of cell growth and viability, A-549
[2] = system: SK-MEL-28; experiment: SRB colorimetric assay of cell growth and viability, SK-MEL-28
[3] = system: HT-29; experiment: SRB colorimetric assay of cell growth and viability, HT-29
[4] = system: LoVo; experiment: SRB colorimetric assay of cell growth and viability, LoVo
[5] = system: LoVo-Dox; experiment: SRB colorimetric assay of cell growth and viability, LoVo-Dox
In short: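 First, 5×10^3 cells per well attach for 18 hours in RPMI 1640 with 10% FBS at 37° C and 5% CO2. Next, samples spanning 10 to 10^−8 μg/mL are added for 48 hours. Finally, cells are fixed with TCA, stained with SRB for 10 minutes and read at 490 nm.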

[6] = system: DU-145; experiment: SRB colorimetric assay of cell growth and viability, DU-145
[7] = system: LNCaP; experiment: SRB colorimetric assay of cell growth and viability, LNCaP
[8] = system: SK-BR-3; experiment: SRB colorimetric assay of cell growth and viability, SK-BR-3
[9] = system: IGROV-1; experiment: SRB colorimetric assay of cell growth and viability, IGROV-1
[10] = system: IGROV-ET; experiment: SRB colorimetric assay of cell growth and viability, IGROV-ET
[11] = system: HeLa; experiment: SRB colorimetric assay of cell growth and viability, HeLa
[12] = system: HeLa-APL; experiment: SRB colorimetric assay of cell growth and viability, HeLa-APL
[13] = system: K-562; experiment: SRB colorimetric assay of cell growth and viability, K-562
[14] = system: PANC-1; experiment: SRB colorimetric assay of cell growth and viability, PANC-1

**Q.** How did the “TGI A-549” value [1] turn out when [(4RS)-MeHex^14]-KF [Compound 17] was run?
**A.** 7.51E−07 Molar

**Q.** What about the GI50 ([1]; read-out: GI50 A-549) of the same substance?
**A.** 240 nM

**Q.** And the CC50 ([1]; read-out: LC50 A-549)?
**A.** 2890 nM

**Q.** And the GI50 [2]?
**A.** 1300 nM

**Q.** What about the “TGI MEL-28” value [2] of the same substance?
**A.** 2.54E−06 Molar

**Q.** What about the CC50 ([2]; read-out: LC50 MEL-28) of the same substance?
**A.** 4960 nM

**Q.** What about the “TGI HT-29” value [3] of the same substance?
**A.** 2.84E−07 Molar

**Q.** And the GI50 ([3]; read-out: GI50 HT-29)?
**A.** 147 nM

**Q.** And the CC50 ([3]; read-out: LC50 HT-29)?
**A.** 550 nM

**Q.** And the GI50 [4]?
**A.** 141 nM

**Q.** What about the “TGI LOVO” value [4] of the same substance?
**A.** 2.67E−07 Molar

**Q.** What about the CC50 ([4]; read-out: LC50 LOVO) of the same substance?
**A.** 503 nM

**Q.** What about the GI50 [5] of the same substance?
**A.** 180 nM

**Q.** What about the “TGI LOVO-DOX” value [5] of the same substance?
**A.** 3.66E−07 Molar

**Q.** And the CC50 ([5]; read-out: LC50 LOVO-DOX)?
**A.** 1270 nM

**Q.** What about the GI50 [6] of the same substance?
**A.** 252 nM

**Q.** And the LC50 (concentration causing 50% net cell kill) [6]?
**A.** 2650 nM

**Q.** And the “TGI DU-145” value [6]?
**A.** 8.39E−07 Molar

**Q.** What about the “TGI LN-caP” value [7] of the same substance?
**A.** 2.10E−06 Molar

**Q.** What about the GI50 ([7]; read-out: GI50 LN-caP) of the same substance?
**A.** 934 nM

**Q.** And the CC50 ([7]; read-out: LC50 LN-caP)?
**A.** 4750 nM

**Q.** And the GI50 [8]?
**A.** 162 nM

**Q.** What about the LC50 [8] of the same substance?
**A.** 606 nM

**Q.** What about the “TGI SK-BR-3” value [8] of the same substance?
**A.** 3.14E−07 Molar

**Q.** And the GI50 [9]?
**A.** 185 nM

**Q.** And the LC50 (concentration causing 50% net cell killing) [9]?
**A.** 1490 nM

**Q.** And the “TGI IGROV” value [9]?
**A.** 3.96E−07 Molar

**Q.** And the GI50 [10]?
**A.** 209 nM

**Q.** And the “TGI IGROV-ET” value [10]?
**A.** 4.24E−07 Molar

**Q.** And the CC50 ([10]; read-out: LC50 IGROV-ET)?
**A.** 1840 nM

**Q.** And the GI50 [11]?
**A.** 744 nM

**Q.** And the “TGI HELA” value [11]?
**A.** 1.71E−06 Molar

**Q.** And the CC50 ([11]; read-out: LC50 HELA)?
**A.** 3920 nM

**Q.** And the GI50 [12]?
**A.** 758 nM

**Q.** And the “TGI HELA-APL” value [12]?
**A.** 1.86E−06 Molar

**Q.** What about the CC50 ([12]; read-out: LC50 HELA-APL) of the same substance?
**A.** 4590 nM

**Q.** And the GI50 [13]?
**A.** 2370 nM

**Q.** And the “TGI K-562” value [13]?
**A.** 4.07E−06 Molar

**Q.** And the CC50 ([13]; read-out: LC50 K-562)?
**A.** ≥ 6770 nM

**Q.** What about the GI50 [14] of the same substance?
**A.** 3820 nM

**Q.** And the “TGI PANC-1” value [14]?
**A.** 6.77E−06 Molar

**Q.** And the CC50 ([14]; read-out: LC50 PANC-1)?
**A.** ≥ 6770 nM
